Experimental data taken from patent US10406120B2, “Methods and compositions for treating kidney disorders” (Golden Biotechnology Corporation, priority 2013, dated 2019).

Experiments:
Col-IV = assay: AcP-IgAN model: renal Col-IV mRNA and protein; type: in vivo, B cell-deficient mice; conditions: AcP-IgAN mice
Method: (§1) B cell-deficient mice (B6.129S2-Igh-6tm1Cgn/J) were obtained from the Academia Sinica (Professor John T. Kung, Institute of Molecular Biology), and maintained at the animal center of the National Defense Medical Center, Taipei, Taiwan. AcP-IgAN was induced in the mice by daily injection of purified IgA anti-phosphorylcholine antibodies and pneumococcal C-polysaccharide (PnC) as described previously (Chao, et al., Kidney Int. 70:283-297; 2006). All animal experiments were performed with the approval of the Institutional Animal Care and Use Committee of The National Defense Medical Center, Taiwan, and were consistent with the NIH Guide for the Care and Use of Laboratory Animals.
For IHC, formalin fixed and paraffin embedded tissue sections or frozen sections were incubated with against IL-6 (R&D Systems, MN), MCP-1 (Santa Cruz, Calif.), F4/80 (monocytes/macrophages; Serotec, N.C.), collagen IV (Southern Biotech, AL), TGF-β1 (Santa Cruz), phopsho-NFκB p65 (Cell Signaling, MA), CD3 (pan-T cell; Serotec), CD4 (T helper cell; BioLegend, CA), CD8 (cytotoxic T cell), CD11b (macrophages/neutrophils), or CD11c (dendritic cells) (BD Biosciences, CA) antibodies. The FITC-conjugated, Alexa Fluor 488-conjugated (Invitrogen, CA) or horseradish peroxidase (HRP) conjugated secondary antibodies (DAKO, Denmark) were then applied to the sections. Hematoxylin or 4′,6-diamidino-2-phenylindole (DAKO) was used in the counter staining for nuclei.
(§2) Total cortical kidney RNA was extracted with TriZOL reagents (Invitrogen) from cortical tissue of the kidney. For first-strand cDNA synthesis, 1.5 μg of total RNA was used in a single-round reverse transcriptase reaction. The reaction mixture consisted of 0.9 μl of Oligo (dT) 12 to 18 primer, 1.0 mM deoxyribonucleotide triphosphate (dNTP), 1 μl first strand buffer, 0.4 mM dithiothreitol, 80 U of RNaseout recombinant ribonuclease inhibitor, and 300 U of superscript II RNase H (Invitrogen). Real-time PCR was performed on an ABI Prism 7700 Sequence Detection System (Applied Biosystems, CA). […]

caspase-1 = assay: AcP-IgAN model: renal caspase-1 mRNA and protein; type: in vivo, B cell-deficient mice; conditions: AcP-IgAN mice
Method: as §1
as §2, with “(Invitrogen).” for “(Invitrogen). Real-time PCR was performed on an ABI Prism 7700 Sequence Detection System (Applied Biosystems, CA).”
Each protein sample was run on a 10% SDS-PAGE gel. […] The membrane-bound antibody detected was incubated with chemiluminescent reagent plus (PerkinElmer Life Sciences, MA) and captured on x-ray film.

apoptosis in the kidney = assay: AcP-IgAN model: apoptosis in the kidney (TUNEL); type: in vivo, B cell-deficient mice
Method: as §1
For the detection of apoptosis, terminal deoxynucleotidyl transferase-mediated dUTP nick-end labeling (TUNEL) was employed. Formalin-fixed and paraffin-embedded tissue sections were stained with ApopTag plus peroxidase in situ apoptosis detection kit (Chemicon, CA) according to the manufacturer's instructions. For scoring, the cortical renal area (including glomerular and peri-glomerular areas) were examined and expressed as cells/glomerular cross-section.

NF-κB p65 = assay: FSGS model: renal NF-κB activation (IHC, ELISA); type: in vivo, BALB/c mice; conditions: FSGS mice
Method: (§3) Experiments described herein were performed on 8-week-old female BALB/c mice. The FSGS mice were injected intravenously with a single dose of adriamycin (0.1 mg/10 g body weight). The mice were given Compound 1 six hours before adriamycin injection by gavage daily till sacrifice. BALB/c mice intraperitoneal injected with normal saline were used as normal controls, while ASLN mice given vehicle (corn oil) by gavage were used as disease controls. Mice were killed at day 7, 14, or 21 after disease induction, and spleen, renal cortical tissue, and blood samples collected and stored appropriately until analysis. All animal experiments were performed with the ethical approval of the Institutional Animal Care and Use Committee of The National Defense Medical Center, Taiwan and performed according to the ethical rules in the NIH Guide for the Care and Use of Laboratory Animals.
For IHC, formalin-fixed and paraffin-embedded renal sections were prepared and incubated with primary antibodies against mouse Desmin (Lab Vision, CA, USA), CD3 (pan-T cell; Serotec, N.C., USA), F4/80 (monocytes/macrophages; Serotec), IL-6 (R&D Systems, MN, USA), NF-κB p65 (Cell Signaling Technology, MA, USA), collagen I, III, and IV (Southern Biotech, AL, USA), or TGF-β1 (Santa Cruz Biotechnology, CA, USA), biotinylated second antibodies (Dako, Glostrup, Denmark), and avidin-biotin-peroxidase complex (Dako). Semi-quantitative evaluation of staining was performed.
(§4) Nuclear proteins were extracted using a nuclear extract kit (Active Motif, Japan). Phospho-NF-κB p65 and nuclear factor-erythroid-2-related factor 2 (NrF2) were measured in renal tissue nuclear protein extracts using Trans-AM ELISA assay kits (Active Motif), according to the manufacturer's instructions. Renal cytosolic protein extracts using RIPA buffer (Cell signaling). Cytosolic glutathione peroxidase (GPx) (Cayman, Mich.) and cytosolic heme oxygenase-1 (HO-1) (Enzo Life Sciences, NY) were measured using commercial ELISA kits according to the manufacturer's instructions. Both were expressed relative to the protein concentration in the lysate.

Nrf2 = assay: AcP-IgAN model: renal Nrf2 mRNA and protein; type: in vivo, B cell-deficient mice; conditions: AcP-IgAN mice, day 3 until day 28, vs control AcP-IgAN mice
Method: as §1
as §4, with “lysate. […]” for “lysate.”

NO = assay: FSGS model: NO determination; type: in vivo, BALB/c mice; conditions: FSGS mice
Method: as §3
NO levels in serum were detected with NO Detection kit (iNtRON Biotechnology, Seongnam, Korea), based on diazotization (Griess method), according to the manufacturer's instructions.

[1] = day 28, vs control AcP-IgAN mice

Compound: COC1=C(OC)[C@H](O)[C@H](C/C=C(\C)CC/C=C(\C)CCC=C(C)C)[C@@H](C)C1=O [Compound 1, Antroquinonol]
- renal mRNA levels of Col-IV (Col-IV; day 3): basal mRNA levels
- Col-IV protein levels in kidney (IHC) (Col-IV; [1]): substantially inhibited
- renal mRNA expression of Col-IV (Col-IV; [1]): greatly inhibited
- renal increase in caspase-1 protein levels (caspase-1; both day 3 and day 28, vs control AcP-IgAN mice): greatly inhibited
- renal mRNA expression levels of caspase-1 (elevation) (caspase-1; day 3 until day 28, real-time PCR): greatly inhibited
- apoptosis in the kidney (TUNEL), increase (apoptosis in the kidney; AcP-IgAN mice, day 28, vs control AcP-IgAN mice): greatly inhibited
- apoptosis in the kidney (TUNEL) (apoptosis in the kidney; all the mice examined, day 3): inconspicuous apoptosis
- nuclear protein expression of NF-κB p65 (ELISA, renal nuclear extracts) (NF-κB p65; day 7): no significant difference
- nuclear protein expression of NF-κB p65 (ELISA, renal nuclear extracts) (NF-κB p65; day 14): slightly blocked
- NF-κB activation, nuclear NF-κB p65 expression (IHC) (NF-κB p65; day 14 and day 21, vs control FSGS mice): markedly inhibited
- nuclear protein expression of NF-κB p65 (ELISA, renal nuclear extracts) (NF-κB p65; day 21): significantly inhibited
- renal expression levels of mRNA of Nrf2 (Nrf2): greatly increased
- renal expression levels of protein of Nrf2 (Nrf2): greatly increased
- urine levels of NO (NO; day 7, among normal control, FSGS+vehicle and FSGS+antroq mice): no detectable difference
- serum NO levels (NO; day 7 to day 21, vs control FSGS mice): significantly suppressed
- urine NO levels (NO; day 14 to day 21, vs control FSGS mice): effectively blunted
